Results on ten compounds are retold here after ChEMBL document CHEMBL1201862, “PubChem BioAssay data set” (2004).

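Five concentrations, 48 hours, 96-well plates. The concentration for 50% growth inhibition is given as GI50.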 Calls of active or inactive are those of the source. Cut-off read from the data, not from the text of the source: active = GI50 up to about 1.1 µM and inactive = higher.

Some test systems named below: A498; A549; BT-549; DU-145; EKVX; HCC 2998; HT-29; LOX IMVI; MDA-N; NCI-H23; OVCAR-8; PC-3; RXF 393; SK-MEL-5; SNB-19; SW-620; T47D; UACC-257; HOP-92.
Holding throughout (test): NCI-60 cell line screen, 48 h

With `CC(=O)c1c(C)[n+]([O-])c2cc(Cl)c(Cl)cc2[n+]1[O-]`, the GI50 with A498 is 23.7 µM (inactive); in the assay on A549 it was 19.2 µM (inactive); with BT-549, 15.6 µM (inactive); in the assay with DU-145 it was 23.1 µM (inactive); in the assay with EKVX it was 28.6 µM (inactive); in the assay on HCC 2998, 21.6 µM (inactive). In addition, the GI50 with HT-29 was 18.5 µM (inactive); in the assay on LOX IMVI, 16.8 µM (inactive); with MDA-N, 22.6 µM (inactive); in the assay on NCI-H23 it was 26.4 µM (inactive); with OVCAR-8, 14.2 µM (inactive); in the assay on PC-3 it was 17.7 µM (inactive). For the same compound, the GI50 in the assay with RXF 393 is > 100 µM (inactive); in the assay on SK-MEL-5, 11.6 µM (inactive); with SNB-19, 30.8 µM (inactive); in the assay on SW-620 it was 17.7 µM (inactive); with T47D, 12.7 µM (inactive); with UACC-257 it was 17.6 µM (inactive).
As for `O=C1CC(Br)c2c(Cl)sc(Cl)c21` (centres undefined), the GI50 is 20.3 µM (inactive) with A498; 18.3 µM (inactive) in the assay on A549; 20.8 µM (inactive) with BT-549; 17 µM (inactive) in the assay on DU-145; 17.5 µM (inactive) in the assay on EKVX; 12 µM (inactive) in the assay with HCC 2998. Further, the GI50 is 15.1 µM (inactive) in the assay with HOP-92; 11.4 µM (inactive) in the assay with HT-29; 1.94 µM (inactive) in the assay on LOX IMVI; 3.21 µM (inactive) in the assay with MDA-N; 16.4 µM (inactive) in the assay on NCI-H23; 3.1 µM (inactive) with OVCAR-8. Also, the GI50 is 10.8 µM (inactive) in the assay with PC-3; 2.39 µM (inactive) with RXF 393; 17.6 µM (inactive) in the assay with SK-MEL-5; 19.3 µM (inactive) in the assay with SNB-19; 1.84 µM (inactive) with SW-620; 4.18 µM (inactive) in the assay with T47D. Moreover, the GI50 in the assay on UACC-257 is 4 µM (inactive).
On to `Clc1ccc(CCN(CCc2ccc(Cl)c(Cl)c2)CCN2CCCC2)cc1Cl`, for which the GI50 in the assay on A498 is 1.77 µM (inactive); in the assay on A549, 1.74 µM (inactive); in the assay with BT-549, 2.04 µM (inactive); in the assay on DU-145, 2.01 µM (inactive); with EKVX, 2.05 µM (inactive); in the assay on HCC 2998, 1.68 µM (inactive). The GI50 is 1.68 µM (inactive) in the assay with HT-29; 1.6 µM (inactive) in the assay on LOX IMVI; 1.87 µM (inactive) in the assay with MDA-N; 1.82 µM (inactive) in the assay with NCI-H23; 1.68 µM (inactive) in the assay with OVCAR-8; 1.57 µM (inactive) with PC-3. The GI50 with RXF 393 was 1.72 µM (inactive); in the assay on SK-MEL-5, 1.81 µM (inactive); with SNB-19, 1.82 µM (inactive); with SW-620 it was 1.72 µM (inactive); with T47D, 3.27 µM (inactive); in the assay on UACC-257, 1.78 µM (inactive).
For `CCCCCCN(C(=O)Oc1ccccc1)C(C#N)c1ccccc1` (centres undefined), the GI50 with A498, in the assay on A549, in the assay with BT-549, in the assay on DU-145, with EKVX and with HCC 2998 was > 100 µM (inactive) throughout. Besides, the GI50 in the assay with HOP-92, with HT-29, in the assay on LOX IMVI, in the assay on MDA-N, with NCI-H23 and in the assay with OVCAR-8 was > 100 µM (inactive) in each case. Besides, the GI50 with PC-3, with RXF 393, with SK-MEL-5, in the assay on SNB-19, in the assay on SW-620 and in the assay with T47D was > 100 µM (inactive) throughout. Besides, the GI50 with UACC-257 is > 100 µM (inactive).
In the case of `CN(CCCNC(=O)c1cn(C)c2c1ccc1cc(Cl)c(Cl)cc12)CCCNC(=O)c1cn(C)c2c1ccc1cc(Cl)c(Cl)cc12`, the GI50 with A498 was 12.9 µM (inactive); with A549, 11 µM (inactive); in the assay with BT-549 it was 15.6 µM (inactive); in the assay on DU-145, 15.3 µM (inactive); in the assay on EKVX, 15.4 µM (inactive); in the assay on HCC 2998, 4 µM (inactive). Further, the GI50 in the assay on HOP-92 is 11.6 µM (inactive); in the assay with HT-29, 14.8 µM (inactive); with LOX IMVI it was 5.74 µM (inactive); in the assay on MDA-N, 15.9 µM (inactive); in the assay on NCI-H23, 14.6 µM (inactive); in the assay on OVCAR-8, 14.8 µM (inactive). Besides, the GI50 was 13.3 µM (inactive) with PC-3; 4.42 µM (inactive) in the assay on RXF 393; 14.7 µM (inactive) with SK-MEL-5; 7 µM (inactive) with SNB-19; 4.19 µM (inactive) in the assay on SW-620; 13.7 µM (inactive) with T47D. Moreover, the GI50 with UACC-257 was 19.3 µM (inactive).
In the case of `Cc1ccc(NC(=S)C#N)c(C)c1`, the GI50 with A498 was > 100 µM (inactive); in the assay on A549, > 100 µM (inactive); in the assay on BT-549, 54.1 µM (inactive); in the assay with DU-145, > 100 µM (inactive); in the assay with EKVX, > 93.5 µM (inactive); with HCC 2998 it was > 100 µM (inactive). In addition, the GI50 is 74.8 µM (inactive) in the assay on HOP-92; > 91.2 µM (inactive) in the assay with HT-29; 73.1 µM (inactive) in the assay on LOX IMVI; > 82.2 µM (inactive) with MDA-N; > 69.5 µM (inactive) in the assay with NCI-H23; > 100 µM (inactive) in the assay on OVCAR-8. Also, the GI50 in the assay on PC-3 is > 100 µM (inactive); in the assay on RXF 393, > 100 µM (inactive); in the assay with SK-MEL-5, 51.9 µM (inactive); in the assay on SNB-19, > 100 µM (inactive); with SW-620, > 73.5 µM (inactive); with T47D it was 46 µM (inactive). Besides, the GI50 with UACC-257 was 63.2 µM (inactive).
As for `COc1cc2c(cc1OC)C1=Cc3cc(OC)c(OC)cc3C(C)N1C=C2` (centres undefined), the GI50 in the assay with A498 is 82.6 µM (inactive); with A549, > 100 µM (inactive); in the assay with BT-549, 34.6 µM (inactive); in the assay on DU-145 it was > 100 µM (inactive); in the assay with EKVX, > 100 µM (inactive); in the assay with HCC 2998, > 100 µM (inactive). Moreover, the GI50 in the assay with HOP-92 was > 100 µM (inactive); in the assay with HT-29, 74.3 µM (inactive); with MDA-N, 51.5 µM (inactive); with NCI-H23 it was > 100 µM (inactive); in the assay on OVCAR-8, 52 µM (inactive); in the assay with PC-3 it was 12.3 µM (inactive). Also, the GI50 with RXF 393 is 57.4 µM (inactive); in the assay on SK-MEL-5, 38.4 µM (inactive); in the assay on SNB-19 it was 59.4 µM (inactive); with SW-620, 84.5 µM (inactive); with T47D, 29.3 µM (inactive); in the assay on UACC-257, 33.7 µM (inactive).
For the compound `CCOC(=O)c1cc(NC(=O)N(CCC#N)CCN(C(=O)N[C@@H](Cc2ccccc2)C(=O)N[C@@H](CC(C)C)C(=O)NC)c2ccccc2)ccc1OC`, the GI50 in the assay on A498 is 63.7 µM (inactive); in the assay on A549, > 100 µM (inactive); in the assay on BT-549, 30.9 µM (inactive); in the assay with DU-145, 44.6 µM (inactive); with EKVX it was 63.1 µM (inactive); with HCC 2998 it was 35.1 µM (inactive). The GI50 in the assay on HOP-92 is 34.3 µM (inactive); in the assay on LOX IMVI it was 18.2 µM (inactive); in the assay on MDA-N it was 57.1 µM (inactive); in the assay on NCI-H23 it was 37.3 µM (inactive); with OVCAR-8 it was 84.9 µM (inactive); in the assay on PC-3 it was 49.4 µM (inactive). Also, the GI50 is 23.1 µM (inactive) in the assay with RXF 393; 42.3 µM (inactive) in the assay with SK-MEL-5; 79.4 µM (inactive) with SNB-19; > 10 µM (inactive) with SW-620; 28.1 µM (inactive) in the assay on T47D; 24 µM (inactive) in the assay with UACC-257.
For `CC1(C)[C@@H]2C[C@H]1c1cnc(-c3ccccn3)cc1C2CCCCC[C@@H]1c2cc(-c3ccccn3)ncc2[C@@H]2C[C@H]1C2(C)C` (some centres undefined), the GI50 in the assay with A498 was 3.5 µM (inactive); in the assay on A549, 0.869 µM (active); in the assay on BT-549 it was 14.1 µM (inactive); with DU-145, 1.41 µM (inactive); in the assay on EKVX it was 2.56 µM (inactive); in the assay with HCC 2998, 7.1 µM (inactive). Further, the GI50 was 0.759 µM (active) with HT-29; 0.625 µM (active) in the assay with LOX IMVI; 1.36 µM (inactive) in the assay with MDA-N; 1.82 µM (inactive) in the assay on NCI-H23; 1.88 µM (inactive) in the assay on OVCAR-8; 1.32 µM (inactive) with PC-3. The GI50 with RXF 393 was 0.745 µM (active); in the assay on SK-MEL-5, 4.18 µM (inactive); with SNB-19, 1.78 µM (inactive); with SW-620, 0.83 µM (active); in the assay with T47D, 1.69 µM (inactive); with UACC-257 it was 0.655 µM (active).
For `O=CN1CCN(C(=O)c2ccco2)C1=S`, the GI50 was 16.5 µM (inactive) in the assay on A498; 11.3 µM (inactive) with A549; 5.5 µM (inactive) in the assay with BT-549; 3.08 µM (inactive) in the assay with DU-145; 17.6 µM (inactive) with EKVX; 4.12 µM (inactive) in the assay with HOP-92. Moreover, the GI50 was 11.3 µM (inactive) in the assay with HT-29; 3.72 µM (inactive) in the assay on LOX IMVI; 7.62 µM (inactive) in the assay with MDA-N; 15.6 µM (inactive) with NCI-H23; 16 µM (inactive) in the assay with OVCAR-8; 7.29 µM (inactive) in the assay with PC-3. Moreover, the GI50 in the assay on RXF 393 was 6.64 µM (inactive); with SK-MEL-5, 12.6 µM (inactive); in the assay with SNB-19, 22.1 µM (inactive); with SW-620, 5.82 µM (inactive); in the assay on T47D it was 4.07 µM (inactive); in the assay with UACC-257 it was 12.1 µM (inactive).
